Tested on: choline acetyl transferase (ChAT) immunoreactive cells
Assay: Anti-ChAT immunofluorescence, cholinergic neuron counts
Type: in vivo, mouse
Settings: for Fewer cholinergic neurons than control: SG-fed; for Cholinergic neurons, change: ventral horn lumbar spinal cord, SG-fed vs control
Procedure: Tissue-mounted slides were processed for fluorescence microscopy as follows: Sections were rinsed in coplin jars for 45 minutes at room temperature (RT) in three changes of PBS. Sections were then incubated at RT for 30 minutes in a blocking permeabilization solution made of 5% normal goat serum (NGS), 5% normal rabbit serum (NRS) or 5% BlokHen II (Ayes Labs, Inc., Tigard, Oreg.), 0.05% Triton X-100 and PBS. Subsequently, the blocking solution was tipped off and the slides were rinsed in PBS for 2 minutes. Sections were then incubated overnight in a humidified chamber at 4° C. with a PBS buffered solution that contained 1% NGS or 1% NRS, 1% bovine serum albumin (BSA) and one of the following primary antibodies: (a) rabbit anti-human/mouse ATF-3 (H-90) IgG (polyclonal, 1:500; Santa Cruz Biotechnology, Inc., Santa Cruz, Calif.), (b) anti-activated caspase-3 IgG (monoclonal, 1:250; Chemicon International, Temecula, Calif.) (see FIG. 9), (c) goat antihuman/mouse choline acetyl transferase (ChAT) IgG (polyclonal, 1:100; Chemicon International, Temecula, Calif.) (see FIG. 6), (d) rabbit anti-mouse glial fibrillary acidic protein IgG (polyclonal, 1:250; GeneTex Inc., San Antonio, Tex.) (see FIG. 7), (e) rabbit antihuman/mouse ionized calcium binding adaptor molecule 1 (IBA-1) IgG (polyclonal, 1:500; Wako Pure Chemical Industries, Ltd, Richmond, Va.), (f) mouse anti-human/mouse clone AT8 PHF-1 Tau (monoclonal, 1:200; Pierce Biotechnology Inc., Rockford, Ill.), (g) rabbit anti-human/mouse TAR DNA-binding protein 43 (TDP43) (1:100; ProteinTech Group Inc., Chicago, Ill.) (See FIG. 14), (h) chicken anti-human/mouse β-tubulin 3 (TuJ1 antigen) (polyclonal, 1:100, Ayes Labs, Inc., Tigard, Oreg.), (i) rabbit anti-mouse tyrosine hydroxylase (polyclonal, 1:500, Chemicon International, Temecula, Calif. or polyclonal 1:1000, Affinity BioReagents, Golden, Colo.) (FIG. 10), (j) rabbit anti human/mouse anti-pJunscr73 IgG (polyclonal, 1:200; Chemicon International, Temecula, Calif.), (k) rabbit anti human/mouse anti-HSP-70 IgG (polyclonal, 1:200; Chemicon International, Temecula, Calif.), or (1) rabbit anti human/mouse anti-HSP-25 IgG (polyclonal, 1:100; Chemicon International, Temecula, Calif.). In each experiment, additional slides were incubated with the primary antibody and the secondary antibody omitted or with secondary antibody and primary antibody omitted to test for nonspecific staining. Where appropriate, positive control slides (Alzheimer's disease patient entorhinal cortex, obtained from Drs. Claudia Schwab and Patrick McGeer of the Kinsmen Laboratory, University of British Columbia, Vancouver, BC, Canada) were also processed as above for comparison. […]

## CC[C@H](/C=C/[C@@H](C)[C@H]1CC[C@H]2[C@@H]3CC=C4C[C@@H](O[C@@H]5O[C@H](CO)[C@@H](O)[C@H](O)[C@H]5O)CC[C@]4(C)[C@H]3CC[C@]12C)C(C)C [SG, Stigmasterol β-D-Glucopyranoside]
35 weeks
  Fewer cholinergic neurons than control: 18%
52 weeks
  Fewer cholinergic neurons than control: 32%
Time-point 1 (35 wk)
  Cholinergic neurons, change: Cholinergic neurons (−18%)
Time-point 2 (52 wk)
  Cholinergic neurons, change: Cholinergic neurons (−32%)

From patent US9573972B2, “Nurotoxic sterol glycosides” (priority 2008, dated 2017)
